Measurements: US20120083522A1, “MODULATION OF INFLAMMATORY RESPONSES BY FACTOR XI” (Isis Pharmaceuitcals, inc., priority 2009, published 2012)
In the oligonucleotide strings, read from the 5' end, every base follows the letter of its sugar. An asterisk marks phosphorothioate; unmarked linkages are phosphodiester. Other units and linkages are bracketed, terminal groups are in braces. A string of capitals states the bases alone. e = 2'-O-(2-methoxyethyl) (MOE); [5mC] = 5-methylcytosine; d = 2'-deoxy (DNA)

Legend:
murine Factor XI mRNA [1] = experiment: In vivo antisense inhibition of murine Factor XI: liver RNA analysis (Example 10); details: BALB/c mice, relative to PBS control
Method: Several antisense oligonucleotides targeted to murine Factor XI mRNA (GENBANK Accession No. NM_028066.1, incorporated herein as SEQ ID NO: 6) showing statistically significant dose-dependent inhibition from the in vitro study were evaluated in vivo. BALB/c mice were treated with ISIS 404057 ([…], target start site 487, incorporated herein as SEQ ID NO: 10) and ISIS 404071 ([…], target start site 869, incorporated herein as SEQ ID NO: 11).
BALB/c mice were injected with 5 mg/kg, 10 mg/kg, 25 mg/kg, or 50 mg/kg of ISIS 404057 or ISIS 404071 twice a week for 3 weeks. A control group of mice was injected with phosphate buffered saline (PBS) twice a week for 3 weeks. Mice were sacrificed 5 days after receiving the last dose. Whole liver was harvested for RNA analysis and plasma was collected for protein analysis.
RNA was extracted from liver tissue for real-time PCR analysis of Factor XI. […] Results are presented as percent inhibition of Factor XI, relative to control.

[2] = system: collagen-induced arthritis model; experiment: Arthritis Study B: collagen-induced arthritis, clinical effects (Example 11); assay type: in vivo, DBA/1J mice
Method: The effect of inhibition of Factor XI and its role in fibrin accumulation in the joints leading to joint inflammation and rheumatoid arthritis was evaluated in a murine collagen-induced arthritis (CIA) model. […] Arthritis induced in mice administered collagen can be visually assessed and clinically scored as described by Marty et al. (J Clin Invest, 107:631-640, 2001) where 1 point is given for each swollen digit except the thumb (maximum, 4), 1 point is given for the tarsal or carpal joint, and 1 point is given for the metatarsal or metacarpal joint with a maximum score of […]. Each paw was graded individually, the cumulative clinical arthritic score per mouse reaching a maximum of 22 points
(§1) In a group of 20 DBA/1J mice, 20 mg/kg of ISIS 404071 were injected subcutaneously twice a week for ten weeks. In a second group of 20 DBA/1J mice, 20 mg/kg of ISIS 404057 were injected subcutaneously twice a week for ten weeks. In a third control group of 20 DBA/1J mice, 20 mg/kg of ISIS 421208 were injected subcutaneously twice a week for ten weeks. Two control groups of 20 mice each were injected with PBS twice a week for ten weeks.
Two and a half weeks after the first oligonucleotide dose, type II bovine collagen in complete Freund's adjuvant was injected subcutaneously at the base of the tail in all the experimental groups and one PBS control group. A booster injection containing 100 μg collagen type II in incomplete Freund's adjuvant was injected subcutaneously at the base of the tail at a different injection site on day 21 after the first collagen injection in these groups.
(§2) Mice in all groups were examined daily after day 30 after the first collagen injection for the visual appearance of arthritis in peripheral joints. The results in Table 22 are expressed as percent change compared to the PBS control except for the liver and spleen weight.

Factor XI mRNA = experiment: Arthritis Study B: liver Factor XI mRNA; assay type: in vivo, DBA/1J mice; details: FIG. 4B
Method: as §1, §2
The difference between the effective of the two Factor XI antisense oligonucleotides may be related to the relative effectiveness of each oligonucleotide in inhibiting Factor XI mRNA as shown in FIG. 4B.

[3] = system: DSS-induced colitis model; experiment: Colitis Study B: body weight and colon length; assay type: in vivo, Swiss Webb mice; details: for Body weight / Colon length: DSS-induced colitis, day 7, 20 mg/kg s.c. twice a week for 3 weeks, percent change compared to the PBS control
Method: (§3) In a first group of 8 Swiss Webb mice, 20 mg/kg of ISIS 404071 was injected subcutaneously twice a week for 3 weeks. In a second group of 8 Swiss Webb mice, 20 mg/kg of ISIS 404057 was subcutaneously injected twice a week for 3 weeks. In a third control group of 8 Swiss Webb mice, 20 mg/kg of ISISI 421208 was injected subcutaneously twice a week for 3 weeks. Two control groups of 8 mice each were injected with PBS twice a week for 3 weeks. After the oligonucleotide treatment, 4% DSS in water was administered ad libitum for 6 days to all the experimental groups and one PBS control group.
(§4) Mice in all groups were weighed at day 0 and daily after administration of DSS. Mice were sacrificed at the end of the study on day 7 after DSS was administered, their livers and colons were harvested for RNA analysis, and their body weights and colon lengths were measured.

murine Factor XI mRNA [4] = experiment: Colitis Study B: Factor XI mRNA in the liver; assay type: in vivo, Swiss Webb mice; details: DSS-induced colitis, day 7, 20 mg/kg s.c. twice a week for 3 weeks, percent change compared to the PBS control
Method: as §3, §4
RT-PCR analysis of Factor XI mRNA was performed. As presented in Table 27 and FIG. 10, antisense oligonucleotides targeting Factor XI achieved statistically significant dose-dependent reduction of murine Factor XI over the PBS control in the liver. All the measurements are normalized to cyclophilin.
All the results in Table 27 are expressed as percent change compared to the PBS control.

[5] = Arthritis Study B: liver and spleen weight, ALT, AST; assay type: in vivo; details: collagen-treated DBA/1J mice, 20 mg/kg s.c. twice a week for ten weeks
Method: as §1, §2

[6] = system: OVA/alum-induced asthma model; experiment: OVA-induced asthma model: BAL eosinophil recruitment (Example 13); assay type: in vivo, BALB/c mice; details: percentage of total cells in BAL, 50 mg/kg s.c. twice a week for 4 weeks
Method: The effect of antisense oligonucleotide inhibition of Factor XI and its role in ameliorating asthma was evaluated in an OVA/alum-induced asthma model. Administration of ovalbumin to animals is a well known method to induce […] and has been previously described by Henderson et al. (J. Exp. Med., 1996, 184: 1483-1494).
(§5) The mice were divided into four treatment groups of 5 mice each. One group received subcutaneous injections of ISIS 404071 at a dose of 50 mg/kg twice a week for 4 weeks. One group of mice received subcutaneous injections of control oligonucleotide, ISIS 421208, which is a mismatch oligonucleotide sequence of ISIS 404071, at a dose of 50 mg/kg twice a week for 4 weeks. Two groups of mice received subcutaneous injections of PBS twice a week for 4 weeks. One PBS group remained untreated and served as the control group. The second PBS group and both the oligonucleotide treated groups were injected with OVA/alum on days 0 and 14 and nebulized with OVA in PBS on days 24, 25, and 26. The first OVA application served to sensitize the mice against OVA while the second was a challenge application to provoke an asthmatic reaction. Two days following the final dose, the mice were euthanized, bronchial lavage (BAL) was collected and analyses done.
Bronchial asthma, even in its mild form, is characterized by local infiltration and activation of inflammatory and immunoeffector cells, including T lymphocytes, macrophages, eosinophils, and mast cells (Smith D. L. et al., Am. Rev. Respir. Dis. 1993. 148: 523-532). The effect of treatment with ISIS 404071 on bronchoalveolar lavage (BAL) eosinophil recruitment was assessed. BAL cells were stained with hemotoxylin and eosin (H&E). The results are presented in Table 49 as a percentage of total cells in BAL.

[7] = system: OVA/alum-induced asthma model; experiment: OVA-induced asthma model: mucus production (Example 13); assay type: in vivo, BALB/c mice; details: BALB/c mice, 50 mg/kg s.c. twice a week for 4 weeks, PAS stain of lung sections
Method: as §5
Lung sections were stained with periodic acid […] (PAS) base stain that stains mucus, which is produced during asthma attacks (Rogers, D. F. Curr. Opin Pharmacol. 2004. 4: 241-250). The number of airways containing mucus as a percentage of the total airways in the lungs was evaluated.

[8] = system: DSS-induced colitis model; experiment: Colitis Study E: weight change, colon length, stool analysis; assay type: in vivo, Swiss Webb mice; details: Colitis Study E, day 7
Method: (§6) Two groups 8 Swiss Webb mice were dosed with 40 mg/kg of ISIS 404071 injected subcutaneously twice a week for 3 weeks. Two control groups of 8 Swiss Webb mice were dosed with PBS subcutaneously twice a week for 3 weeks. Both the ASO treated groups and one of the control groups were then given 4% DSS in distilled water for 7 days ad libitum. One of the ASO and DSS treated groups was also given intravenous injections of 20 μg of recombinant human Factor XI protein (Haematologic Technologies Inc.) for 7 consecutive days, starting the day before DSS treatment. Mice were sacrificed at the end of the study on day 7 after DSS was administered.
Mice in all groups were weighed at day 0 and at the end of the study. […] Mice were sacrificed at the end of the study on day 7 after DSS was administered and their colon lengths were measured.

[9] = system: thrombin-antithrombin (TAT) complexes; experiment: Colitis Study E: TAT levels; assay type: in vivo, Swiss Webb mice; details: Colitis Study E, day 7
Method: as §6
Mice with dextran sodium sulfate (DSS)-induced colitis have elevated level of thrombin-antithrombin (TAT) complexes in blood (Anthoni, C. et al., J. Exp. Med. 204: 1595-1601, 2007) and is also observed in patients with ulcerative colitis (Kume, K. et al., Intern Med. 2007. 46: 1323-9). The effect of antisense inhibition of Factor XI on TAT levels in the […] was evaluated (Siemens Healthcare Diagnostics, Deerfield, Ill.) at the end of the study on day 7 after DSS was administered and the results are presented in Table 38.

[10] = system: soluble CD40 ligand (CD40L); experiment: Colitis Study E: CD40L plasma levels; assay type: in vivo, Swiss Webb mice; details: Colitis Study E, day 7
Method: as §6
Plasma levels of soluble CD40 ligand (CD40L) are known to be elevated in cases of inflammatory bowel disease (Ludwiczek, O. et al., Int. J. Colorectal Disease. 2003. 18: 142-147) and may be considered a marker of intestinal inflammation. The effect of antisense inhibition of Factor XI on CD40L levels in the plasma was evaluated at the end of the study on day 7 after DSS was administered and the results are presented in Table 39. CD40L levels in plasma were measured by commercially available ELISA kits (Bender MedSystems, Vienna, Austria, eBioscience, San Diego, Calif.) according to the manufacture's protocols.

bradykinin = experiment: Colitis Study E: bradykinin levels in colon; assay type: in vivo, Swiss Webb mice; details: Colitis Study E, day 7
Method: as §6
The effect of antisense inhibition of Factor XI on kinin levels in the colon was evaluated (Phoenix Pharmaceuticals, Burlingame, Calif.) at the end of the study on day 7 after DSS was administered and the results are presented in Table 40.

[11] = system: IFN-γ, IL-10, IL-12, IL-1β, IL-2, IL-4, IL-5, TNF-α, KC; experiment: Colitis Study E: cytokine levels in colon (multiplex ELISA); assay type: in vivo, Swiss Webb mice; details: Colitis Study E, day 7
Method: as §6
The cytokine levels of IFN-γ, IL-10, IL-12, IL-1β, IL-2, IL-4, IL-5, TNF-α, and keratinocyte chemoattractant (KC) were measured in the colon of the mice groups at the end of the study on day 7 after DSS was administered. Colons were homogenized on ice in PBS supplemented with protease inhibitors (Sigma, St. Louis, Mo.) and extracted with rotation at 4° C. for 1 hour. After removal of insoluble material by centrifugation, colon homogenates were used for the cytokine analysis by multiplex ELISA (Mouse TH1/TH2 9-Plex Ultra-Sensitive Kit, Meso Scale Discovery, Gaithersburg, Md.) according to the manufacture's protocol. Cytokine levels in colon extracts were normalized to the protein concentration measured by protein assay kit (BioRad, Hercules, Calif.). The levels of pro-inflammatory cytokines, IFN-γ, IL-1β, IL-10, IL-2, IL-5, TNF-α, and KC were elevated by DSS administration, and were decreased by treatment with ISIS 404071.

[12] = DBA/1J mice, 20 mg/kg s.c. twice a week for ten weeks, end of study

Substance: TCCTGGCATTCTCGAGCATT (eT*e[5mC]*e[5mC]*eT*eG*dG*d[5mC]*dA*dT*dT*d[5mC]*dT*d[5mC]*dG*dA*eG*e[5mC]*eA*eT*eT) [ISIS 404057, 5-10-5 MOE gapmer targeting murine Factor XI, target start site 487]
- % inhibition (murine Factor XI mRNA [1]; 5 mg/kg twice a week for 3 weeks): 40%
- % inhibition (murine Factor XI mRNA [1]; 10 mg/kg twice a week for 3 weeks): 64%
- % inhibition (murine Factor XI mRNA [1]; 25 mg/kg twice a week for 3 weeks): 85%
- % inhibition (murine Factor XI mRNA [1]; 50 mg/kg twice a week for 3 weeks): 95%
- amount of arthritis assessed (in words) ([2]; Arthritis Study B, 20 mg/kg twice a week for ten weeks, compared to untreated mice): did not affect the amount of arthritis
- Factor XI inhibition in liver (in words) (Factor XI mRNA): lack of Factor XI inhibition
- body weight (in words) ([3]; Colitis Study B, FIG. 9): did not have any significant change in body weight
- Body weight [3]: −16%
- Colon length [3]: −11%
- Liver Factor XI mRNA (murine Factor XI mRNA [4]): −50%

Substance: TCGGAAGC GACTCTTATATG (eT*e[5mC]*eG*eG*eA*dA*dG*d[5mC]*dG*dA*d[5mC]*dT*d[5mC]*dT*dT*eA*eT*eA*eT*eG) [ISIS 421208, control oligonucleotide for ISIS 404071 with 8 mismatches, 5-10-5 MOE gapmer, reference compound]
- % of CIA [2, 12]: 81%
- % of paws affected [2, 12]: 45%
- Average no. of paws affected [2, 12]: 1.7
- Clinical severity of CIA [2, 12]: 7.75
- Liver ALT [5]: 70.06
- Liver AST [5]: 165.12
- Liver Weight as a % of Body Weight [5]: 6.14%
- Spleen Weight as a % of Body Weight [5]: 0.718 % of Body Weight
- Body weight [3]: −10%
- Colon length [3]: −33%
- Liver Factor XI mRNA (murine Factor XI mRNA [4]): +25%
- Eosinophils [6]: 51%
- Mucus production, % airways containing mucus [7]: 49 % airways

Substance: recombinant Factor XI protein: recombinant human Factor XI protein (Haematologic Technologies Inc.)
- colon length (in words) [8]: increase in colon length due to treatment with ISIS 404071 is eliminated
- stool softness/diarrhea (in words) [8]: amelioration of diarrhea in mice treated with ISIS 404071 is eliminated
- TAT levels (in words) [9]: near restoration of TAT levels to that of the DSS treated mice
- CD40L levels in plasma (in words) [10]: restoration of CD40L levels to that of the DSS treated mice
- bradykinin levels (in words) (bradykinin): restoration of bradykinin levels to that of the DSS treated mice
- pro-inflammatory cytokine levels in colon: IFN-γ, IL-1β, IL-10, IL-2, IL-5, TNF-α, KC (in words) [11]: restoration of cytokine levels to that of the DSS treated mice
